Measurements reported in ChEMBL document CHEMBL5325392, “Development of 3α,7α-dihydroxy-6α-ethyl-24-nor-5β-cholan-23-sulfate sodium salt (INT-767): Process optimization, synthesis and characterization of metabolites” (Eur J Med Chem, 2022).

Tests used:
Bile acid receptor = molecular target: T1, Bile acid receptor (Homo sapiens, UniProt Q96RI1); experiment: Agonist activity at glutathione transferase-tagged human FXR ligand binding domain assessed as biotinylated Src1 peptide recruitment incubated for 30 mins by AlphaScreen assay
T1 sequence (Q96RI1 whole entry): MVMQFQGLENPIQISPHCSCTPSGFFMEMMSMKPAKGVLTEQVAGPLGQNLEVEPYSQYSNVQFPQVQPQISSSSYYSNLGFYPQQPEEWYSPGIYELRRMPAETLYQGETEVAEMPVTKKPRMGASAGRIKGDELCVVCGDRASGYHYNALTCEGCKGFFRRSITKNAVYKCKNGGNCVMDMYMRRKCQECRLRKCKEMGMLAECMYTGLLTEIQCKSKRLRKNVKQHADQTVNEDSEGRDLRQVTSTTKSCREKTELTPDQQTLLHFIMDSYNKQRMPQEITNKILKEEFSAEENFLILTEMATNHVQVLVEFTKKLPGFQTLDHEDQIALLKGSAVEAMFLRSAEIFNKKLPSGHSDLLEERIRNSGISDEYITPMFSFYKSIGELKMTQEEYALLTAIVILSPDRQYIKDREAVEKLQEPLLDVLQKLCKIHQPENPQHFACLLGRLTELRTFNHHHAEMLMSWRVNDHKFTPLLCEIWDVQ

[1] = molecular target: T2, G-protein coupled bile acid receptor 1 (Homo sapiens, UniProt Q8TDU6); experiment: Agonist activity at TGR5 receptor in human NCI-H716 cells assessed as activation of intracellular cAMP production incubated for 1 hr by HTR-FRET assay; assay type: functional, cell-based
T2 sequence (Q8TDU6 whole entry): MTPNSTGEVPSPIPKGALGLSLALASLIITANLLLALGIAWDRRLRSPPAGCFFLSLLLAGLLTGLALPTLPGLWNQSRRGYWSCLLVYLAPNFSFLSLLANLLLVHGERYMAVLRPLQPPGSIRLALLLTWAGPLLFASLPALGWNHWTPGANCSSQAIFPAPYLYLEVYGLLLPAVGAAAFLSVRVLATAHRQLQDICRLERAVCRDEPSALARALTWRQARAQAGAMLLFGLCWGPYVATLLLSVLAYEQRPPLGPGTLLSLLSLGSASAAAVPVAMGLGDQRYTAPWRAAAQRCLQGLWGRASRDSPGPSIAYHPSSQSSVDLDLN

[2] = molecular target: T3, Bile acid receptor (Homo sapiens) (UniProt Q96RI1); experiment: Agonist activity at glutathione transferase-tagged human FXR ligand binding domain assessed as biotinylated Src1 peptide recruitment incubated for 30 mins by AlphaScreen assay relative to CDCA; details: filed as agonist
T3 sequence (whole entry): T1 sequence (Q96RI1 whole entry)

Row | EC50 (Bile acid receptor) | EC50 [1] | Efficacy [2] | SMILES
1 | 0.08 µM | 5 µM | 162% | CC[C@H]1[C@@H](O)[C@@H]2[C@H](CC[C@]3(C)[C@@H]([C@H](C)CCOS(=O)(=O)O)CC[C@@H]23)[C@@]2(C)CCC(=O)C[C@@H]12
2 | 5 µM | > 100 µM | 115% | CC[C@H]1[C@@H](O)[C@@H]2[C@H](CC[C@]3(C)[C@@H]([C@H](C)CCOS(=O)(=O)O)CC[C@@H]23)[C@@]2(C)CC[C@@H](O[C@@H]3O[C@H](CC(=O)O)[C@@H](O)[C@H](O)[C@H]3O)C[C@@H]12
3 | > 100 µM | > 100 µM |  | CC[C@H]1[C@@H](O)[C@@H]2[C@H](CC[C@]3(C)[C@@H]([C@H](C)CCOS(=O)(=O)O)CC[C@@H]23)[C@@]2(C)CC[C@@H](OS(=O)(=O)O)C[C@@H]12

Row | SMILES | EC50 (Bile acid receptor) | EC50 [1] | Efficacy [2]
4 | CC[C@H]1[C@@H](O)[C@@H]2[C@H](CC[C@]3(C)[C@@H]([C@H](C)CCO)CC[C@@H]23)[C@@]2(C)CC[C@@H](O)C[C@@H]12 | 1.2 µM | 1.1 µM | 165%
